What was measured:
[1] = human gut metagenome, 24 h, 2 µM
[2] = (§1) The drug is tested on Z-022 corresponding to mouse gut metagenome with ENA study accession number: PRJEB37062 and ENA sample accession number: ERS12561821 for biotransformation under anaerobic condition. The drug concentrations were measured over 9 timepoints collected between 0 and 24 hours of incubation by liquid-chromatography-coupled mass spectrometry (LC–MS); settings: 2 µM
[3] = as §1, with “Z-020” for “Z-022”, “rabbit” for “mouse”, “ERS12561819” for “ERS12561821”; settings: 2 µM
[4] = human gut metagenome, 24 h, 2 µM; remark: listed apart in the source
[5] = as §1, with “WLS-027” for “Z-022”, “human” for “mouse”, “ERS12561744” for “ERS12561821”; settings: 2 µM
[6] = human gut metagenome, 24 h, 2 µM; remark: listed apart in the source
[7] = as §1, with “Z-021” for “Z-022”, “to” for “to mouse gut”, “ERS12561820” for “ERS12561821”; settings: 2 µM
[8] = as §1, with “Z-014” for “Z-022”, “rat” for “mouse”, “ERS12561814” for “ERS12561821”; settings: 2 µM
[9] = as §1, with “Z-001” for “Z-022”, “ERS12561801” for “ERS12561821”; settings: 2 µM
[10] = human gut metagenome, 24 h, 2 µM; remark: listed apart in the source
[11] = human gut metagenome, 24 h, 2 µM; remark: listed apart in the source
[12] = as §1, with “Z-026” for “Z-022”, “to” for “to mouse gut”, “ERS12561825” for “ERS12561821”; settings: 2 µM
[13] = human gut metagenome, 24 h, 2 µM; remark: listed apart in the source
[14] = as §1, with “WLS-170” for “Z-022”, “human” for “mouse”, “ERS12561762” for “ERS12561821”; settings: 2 µM
[15] = human gut metagenome, 24 h, 2 µM; remark: listed apart in the source
[16] = human gut metagenome, 24 h, 2 µM; remark: listed apart in the source
[17] = human gut metagenome, 24 h, 2 µM; remark: listed apart in the source
[18] = as §1, with “Z-025” for “Z-022”, “rabbit” for “mouse”, “ERS12561824” for “ERS12561821”; settings: 2 µM
[19] = as §1, with “WLS-007” for “Z-022”, “human” for “mouse”, “ERS12561742” for “ERS12561821”; settings: 2 µM
[20] = as §1, with “Z-004” for “Z-022”, “to” for “to mouse gut”, “ERS12561804” for “ERS12561821”; settings: 2 µM
Further: call rule not given here.

## CCCc1nn(C)c2c(=O)[nH]c(-c3cc(S(=O)(=O)N4CCN(C)CC4)ccc3OCC)nc12.O=C(O)CC(O)(CC(=O)O)C(=O)O [SILDENAFIL CITRATE]
[1]
  Bacterial Biotransformation: Compound metabolized
[2]
  Bacterial Biotransformation: Compound metabolized
[3]
  Bacterial Biotransformation: Compound NOT metabolized
[4]
  Bacterial Biotransformation: Compound NOT metabolized
[5]
  Bacterial Biotransformation: Compound NOT metabolized
[6]
  Bacterial Biotransformation: Compound NOT metabolized
[7]
  Bacterial Biotransformation: Compound NOT metabolized
[8]
  Bacterial Biotransformation: Compound NOT metabolized
[9]
  Bacterial Biotransformation: Compound NOT metabolized
[10]
  Bacterial Biotransformation: Compound NOT metabolized
[11]
  Bacterial Biotransformation: Compound NOT metabolized
[12]
  Bacterial Biotransformation: Compound NOT metabolized
[13]
  Bacterial Biotransformation: Compound NOT metabolized
[14]
  Bacterial Biotransformation: Compound metabolized
[15]
  Bacterial Biotransformation: Compound metabolized
[16]
  Bacterial Biotransformation: Compound metabolized
[17]
  Bacterial Biotransformation: Compound NOT metabolized
[18]
  Bacterial Biotransformation: Compound metabolized
[19]
  Bacterial Biotransformation: Compound NOT metabolized
[20]
  Bacterial Biotransformation: Compound NOT metabolized

## COc1ccc2[nH]c([S+]([O-])Cc3ncc(C)c(OC)c3C)nc2n1 (stereo not given) [TENATOPRAZOLE]
[1]
  Bacterial Biotransformation: Compound metabolized
[2]
  Bacterial Biotransformation: Compound NOT metabolized
[3]
  Bacterial Biotransformation: Compound NOT metabolized
[4]
  Bacterial Biotransformation: Compound NOT metabolized
[5]
  Bacterial Biotransformation: Compound metabolized
[6]
  Bacterial Biotransformation: Compound metabolized
[7]
  Bacterial Biotransformation: Compound NOT metabolized
[8]
  Bacterial Biotransformation: Compound metabolized
[9]
  Bacterial Biotransformation: Compound metabolized
[10]
  Bacterial Biotransformation: Compound metabolized
[11]
  Bacterial Biotransformation: Compound metabolized
[12]
  Bacterial Biotransformation: Compound metabolized
[13]
  Bacterial Biotransformation: Compound metabolized
[14]
  Bacterial Biotransformation: Compound NOT metabolized
[15]
  Bacterial Biotransformation: Compound NOT metabolized
[16]
  Bacterial Biotransformation: Compound metabolized
[17]
  Bacterial Biotransformation: Compound NOT metabolized
[18]
  Bacterial Biotransformation: Compound metabolized
[19]
  Bacterial Biotransformation: Compound metabolized
[20]
  Bacterial Biotransformation: Compound metabolized

## CN1C(C(=O)Nc2ccccn2)=C(O)c2sccc2S1(=O)=O [TENOXICAM]
[1]
  Bacterial Biotransformation: Compound NOT metabolized
[2]
  Bacterial Biotransformation: Compound metabolized
[3]
  Bacterial Biotransformation: Compound NOT metabolized
[4]
  Bacterial Biotransformation: Compound NOT metabolized
[5]
  Bacterial Biotransformation: Compound NOT metabolized
[6]
  Bacterial Biotransformation: Compound NOT metabolized
[7]
  Bacterial Biotransformation: Compound metabolized
[8]
  Bacterial Biotransformation: Compound NOT metabolized
[9]
  Bacterial Biotransformation: Compound NOT metabolized
[10]
  Bacterial Biotransformation: Compound NOT metabolized
[11]
  Bacterial Biotransformation: Compound NOT metabolized
[12]
  Bacterial Biotransformation: Compound NOT metabolized
[13]
  Bacterial Biotransformation: Compound NOT metabolized
[14]
  Bacterial Biotransformation: Compound NOT metabolized
[15]
  Bacterial Biotransformation: Compound NOT metabolized
[16]
  Bacterial Biotransformation: Compound NOT metabolized
[17]
  Bacterial Biotransformation: Compound NOT metabolized
[18]
  Bacterial Biotransformation: Compound metabolized
[19]
  Bacterial Biotransformation: Compound NOT metabolized
[20]
  Bacterial Biotransformation: Compound NOT metabolized

## O=c1n(CCCN2CCN(c3cccc(Cl)c3)CC2)nc2ccccn12 [TRAZODONE]
[1]
  Bacterial Biotransformation: Compound NOT metabolized
[2]
  Bacterial Biotransformation: Compound metabolized
[3]
  Bacterial Biotransformation: Compound NOT metabolized
[4]
  Bacterial Biotransformation: Compound NOT metabolized
[5]
  Bacterial Biotransformation: Compound metabolized
[6]
  Bacterial Biotransformation: Compound NOT metabolized
[7]
  Bacterial Biotransformation: Compound NOT metabolized
[8]
  Bacterial Biotransformation: Compound NOT metabolized
[9]
  Bacterial Biotransformation: Compound NOT metabolized
[10]
  Bacterial Biotransformation: Compound NOT metabolized
[11]
  Bacterial Biotransformation: Compound NOT metabolized
[12]
  Bacterial Biotransformation: Compound NOT metabolized
[13]
  Bacterial Biotransformation: Compound metabolized
[14]
  Bacterial Biotransformation: Compound NOT metabolized
[15]
  Bacterial Biotransformation: Compound metabolized
[16]
  Bacterial Biotransformation: Compound metabolized
[17]
  Bacterial Biotransformation: Compound NOT metabolized
[18]
  Bacterial Biotransformation: Compound NOT metabolized
[19]
  Bacterial Biotransformation: Compound metabolized
[20]
  Bacterial Biotransformation: Compound metabolized

## OC(CCN1CCCCC1)(c1ccccc1)C1CCCCC1 (stereo not given) [TRIHEXYPHENIDYL]
[1]
  Bacterial Biotransformation: Compound metabolized
[2]
  Bacterial Biotransformation: Compound metabolized
[3]
  Bacterial Biotransformation: Compound metabolized
[4]
  Bacterial Biotransformation: Compound NOT metabolized
[5]
  Bacterial Biotransformation: Compound NOT metabolized
[6]
  Bacterial Biotransformation: Compound NOT metabolized
[7]
  Bacterial Biotransformation: Compound metabolized
[8]
  Bacterial Biotransformation: Compound NOT metabolized
[9]
  Bacterial Biotransformation: Compound metabolized
[10]
  Bacterial Biotransformation: Compound NOT metabolized
[11]
  Bacterial Biotransformation: Compound metabolized
[12]
  Bacterial Biotransformation: Compound NOT metabolized
[13]
  Bacterial Biotransformation: Compound metabolized
[14]
  Bacterial Biotransformation: Compound metabolized
[15]
  Bacterial Biotransformation: Compound metabolized
[16]
  Bacterial Biotransformation: Compound NOT metabolized
[17]
  Bacterial Biotransformation: Compound NOT metabolized
[18]
  Bacterial Biotransformation: Compound NOT metabolized
[19]
  Bacterial Biotransformation: Compound metabolized
[20]
  Bacterial Biotransformation: Compound metabolized

## Cc1cn([C@H]2C[C@H](N=[N+]=[N-])[C@@H](CO)O2)c(=O)[nH]c1=O [ZIDOVUDINE]
[1]
  Bacterial Biotransformation: Compound NOT metabolized
[2]
  Bacterial Biotransformation: Compound metabolized
[3]
  Bacterial Biotransformation: Compound metabolized
[4]
  Bacterial Biotransformation: Compound NOT metabolized
[5]
  Bacterial Biotransformation: Compound NOT metabolized
[6]
  Bacterial Biotransformation: Compound NOT metabolized
[7]
  Bacterial Biotransformation: Compound NOT metabolized
[8]
  Bacterial Biotransformation: Compound NOT metabolized
[9]
  Bacterial Biotransformation: Compound metabolized
[10]
  Bacterial Biotransformation: Compound NOT metabolized
[11]
  Bacterial Biotransformation: Compound NOT metabolized
[12]
  Bacterial Biotransformation: Compound metabolized
[13]
  Bacterial Biotransformation: Compound NOT metabolized
[14]
  Bacterial Biotransformation: Compound NOT metabolized
[15]
  Bacterial Biotransformation: Compound NOT metabolized
[16]
  Bacterial Biotransformation: Compound NOT metabolized
[17]
  Bacterial Biotransformation: Compound NOT metabolized
[18]
  Bacterial Biotransformation: Compound metabolized
[19]
  Bacterial Biotransformation: Compound NOT metabolized
[20]
  Bacterial Biotransformation: Compound metabolized

Source: ChEMBL document CHEMBL5724914, “Linking interpersonal differences in gut microbiota composition and drug biotransformation activity” (2024)
